{"source": "patent US8614216B2", "key": {"[1]": {"test": "Solid state chemical stability, HPLC analysis", "type": "physicochemical", "details": "open flask", "excerpt": "(§1) Samples were pulled at pre-determined time-points and analyzed for chemical stability."}, "[2]": {"test": "Solution state chemical stability, HPLC analysis", "type": "physicochemical", "details": "sealed vial", "excerpt": "as §1"}, "[3]": {"test": "Moisture induced weight change in lactate salts", "type": "physicochemical", "details": "55% RH; listed as Lactate-trial 3"}, "[4]": {"test": "Dynamic vapor sorption (DVS) hygroscopicity experiment", "type": "physicochemical", "procedure": "All DVS measurements were carried out at 2.5% relative humidity change per hour."}, "[5]": {"test": "Compaction studies (Carver Press, tablet hardness tester)", "type": "physicochemical", "details": "200 mg at 5000 psi, 0.8 cm die", "procedure": "The resulting tensile strength and thickness of the compacts were measured using a VK 200 Tablet Hardness Tester and Mitutoyo thickness gauge."}, "physchem": {"test": "physchem", "details": "23 °C, water, thermodynamic from solid"}, "[6]": {"test": "Physical stability of the amorphous form on storage"}}}
{"smiles": "CN1CCN(c2ccc3nc(-c4c(N)c5c(F)cccc5[nH]c4=O)[nH]c3c2)CC1", "note": "[Bis-lactate]", "values": [{"measurement": "Area % at Time = 0", "setting": "[1]; 40° C./70% Relative humidity", "value": 98.99, "unit": "Area %"}, {"measurement": "Area % at Time = 6 weeks", "setting": "[1]; 40° C./70% Relative humidity", "value": 97.92, "unit": "Area %"}]}
{"smiles": "CC(O)C(=O)O.CN1CCN(c2ccc3nc(-c4c(N)c5c(F)cccc5[nH]c4=O)[nH]c3c2)CC1", "note": "[Form A]", "values": [{"measurement": "Area % at Time = 0", "setting": "[2]; 5° C.", "value": 98.80, "unit": "Area %"}, {"measurement": "Area % at Time = 7 days", "setting": "[2]; 5° C.", "value": 98.60, "unit": "Area %"}, {"measurement": "Area % at Time = 0", "setting": "[2]; ambient temperature", "value": 98.80, "unit": "Area %"}, {"measurement": "Area % at Time = 7 days", "setting": "[2]; ambient temperature", "value": 98.71, "unit": "Area %"}, {"measurement": "Moisture induced % weight change", "setting": "[3]", "value": 0.08, "unit": "%"}, {"measurement": "Area % at Time = 0", "setting": "[1]; 30° C./60% Relative humidity", "value": 98.41, "unit": "Area %"}, {"measurement": "Area % at Time = 6 weeks", "setting": "[1]; 30° C./60% Relative humidity", "value": 99.04, "unit": "Area %"}, {"measurement": "Area % at Time = 0", "setting": "[1]; 40° C./70% Relative humidity", "value": 98.46, "unit": "Area %"}, {"measurement": "Area % at Time = 6 weeks", "setting": "[1]; 40° C./70% Relative humidity", "value": 98.55, "unit": "Area %"}, {"measurement": "Hygroscopicity in DVS experiment", "setting": "[4]; below about 80% r.h., 2.5% relative humidity change per hour", "value": "not hygroscopic"}, {"measurement": "Water uptake in DVS experiment", "setting": "[4]; exposure to r.h. conditions above 90%", "value": "significant water uptake"}, {"measurement": "Forms Compact", "setting": "[5]; listed as Lactate-trial 1", "value": "Yes"}, {"measurement": "Tensile strength of compact", "setting": "[5]; listed as Lactate-trial 1", "value": 13.8, "unit": "SC—Strong Cobb"}, {"measurement": "Thickness of compact", "setting": "[5]; listed as Lactate-trial 1", "value": 3.06, "unit": "mm"}, {"measurement": "Forms Compact", "setting": "[5]; listed as Lactate-trial 2", "value": "Yes"}, {"measurement": "Tensile strength of compact", "setting": "[5]; listed as Lactate-trial 2", "value": 17.9, "unit": "SC—Strong Cobb"}, {"measurement": "Thickness of compact", "setting": "[5]; listed as Lactate-trial 2", "value": 2.92, "unit": "mm"}, {"measurement": "Forms Compact", "setting": "[5]; listed as Lactate-trial 3", "value": "Yes"}, {"measurement": "Tensile strength of compact", "setting": "[5]; listed as Lactate-trial 3", "value": 16.1, "unit": "SC—Strong Cobb"}, {"measurement": "Thickness of compact", "setting": "[5]; listed as Lactate-trial 3", "value": 2.97, "unit": "mm"}, {"measurement": "Forms Compact", "setting": "[5]; listed as lactate salt", "value": "forms strong compacts without a tendency to cap or chip"}, {"measurement": "solubility", "setting": "physchem", "value": "> 400", "unit": "mg/mL"}]}
{"smiles": "CN1CCN(c2ccc3nc(-c4c(N)c5c(F)cccc5[nH]c4=O)[nH]c3c2)CC1", "note": "[Free base]", "values": [{"measurement": "Area % at Time = 0", "setting": "[1]; 30° C./60% Relative humidity", "value": 97.38, "unit": "Area %"}, {"measurement": "Area % at Time = 6 weeks", "setting": "[1]; 30° C./60% Relative humidity", "value": 97.83, "unit": "Area %"}, {"measurement": "Area % at Time = 0", "setting": "[1]; 40° C./70% Relative humidity", "value": 97.77, "unit": "Area %"}, {"measurement": "Area % at Time = 6 weeks", "setting": "[1]; 40° C./70% Relative humidity", "value": 98.23, "unit": "Area %"}]}
{"smiles": "CC(O)C(=O)O.CN1CCN(c2ccc3nc(-c4c(N)c5c(F)cccc5[nH]c4=O)[nH]c3c2)CC1", "note": "[amorphous form]", "values": [{"measurement": "Time stable", "setting": "[6]; 75% relative humidity and 40° C.", "value": "more than 2 days"}, {"measurement": "Stability of the solid form", "setting": "[6]; ambient conditions", "value": "stable"}]}
